In ChEMBL document CHEMBL1201862, “PubChem BioAssay data set” (2004):
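Five compound concentrations were applied to cells in 96-well plates for 48 hours; endpoints were derived by simple linear interpolation of the resulting dose-response curve. Abbreviation: GI50, concentration required for 50% inhibition of growth.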 Calls of active or inactive are those of the source. No stated cut-off is given here; in the data, active = GI50 up to about 1.1 µM and inactive = higher.

Experiments:
Assay in all cases: NCI anticancer screen, dose series, 48 h
[1] = system: SN12C
[2] = system: BT-549
[3] = system: RXF 393
[4] = system: COLO 205
[5] = system: RPMI-8226
[6] = system: MOLT-4
[7] = system: ACHN
[8] = system: K562
[9] = system: NCI-H226
[10] = system: TK-10
[11] = system: SR
[12] = system: HCT-116
[13] = system: T47D
[14] = system: NCI-H522
[15] = system: OVCAR-5
[16] = system: UO-31
[17] = system: DU-145
[18] = system: SK-MEL-5
[19] = system: SK-OV-3
[20] = system: SF-268
[21] = system: IGROV-1
[22] = system: KM12
[23] = system: A549
[24] = system: Hs-578T
[25] = system: MDA-MB-231
[26] = system: PC-3
[27] = system: SK-MEL-2
[28] = system: SW-620
[29] = system: M14
[30] = system: SNB-75
[31] = system: NCI-H460
[32] = system: NCI-H23
[33] = system: OVCAR-8
[34] = system: UACC-62
[35] = system: SF-295
[36] = system: Malme-3M
[37] = system: SNB-19
[38] = system: 786-0
[39] = system: U-251
[40] = system: HOP-92
[41] = system: SK-MEL-28
[42] = system: MDA-N
[43] = system: SF-539
[44] = system: MCF7
[45] = system: MDA-MB-435
[46] = system: NCI/ADR-RES
[47] = system: EKVX
[48] = system: UACC-257
[49] = system: CAKI-1
[50] = system: HT-29
[51] = system: HCT-15
[52] = system: OVCAR-4
[53] = system: OVCAR-3
[54] = system: LOX IMVI
[55] = system: HCC 2998
[56] = system: A498
[57] = system: CCRF-CEM
[58] = system: HL-60
[59] = system: HOP-62

Measured: GI50

C/C(=N\Nc1ccc([N+](=O)[O-])cc1[N+](=O)[O-])c1ccc2ccccc2n1
60.3 µM: [51]
inactive: [1] > 100 µM | [2] 53.6 µM | [3] > 100 µM | [4] > 100 µM | [5] > 100 µM | [6] > 100 µM | [7] 42.8 µM | [8] > 100 µM | [9] 88.1 µM | [10] 39.6 µM | [11] 97.9 µM | [12] 57.4 µM | [13] > 100 µM | [14] 13.7 µM | [15] > 100 µM | [16] 51.4 µM | [17] > 100 µM | [18] 47.1 µM | [19] > 100 µM | [20] 61 µM | [21] 28.1 µM | [22] > 100 µM | [23] 57.5 µM | [24] 25.3 µM | [25] 49.3 µM | [26] > 100 µM | [27] > 100 µM | [28] > 100 µM | [29] > 100 µM | [30] 81.1 µM | [31] 33 µM | [32] > 100 µM | [33] 47.3 µM | [34] 66.2 µM | [35] 52.6 µM | [36] > 100 µM | [37] 20 µM | [38] 78.3 µM | [39] 33.1 µM | [40] > 100 µM | [41] > 100 µM | [42] > 100 µM | [43] 81.8 µM | [44] 89.9 µM | [45] > 100 µM | [46] 46 µM | [47] > 100 µM | [48] > 100 µM | [49] 58.9 µM | [50] 74.6 µM

CC(=O)NC(c1nc2cc(C)c(C)cc2[nH]1)c1nc2cc(C)c(C)cc2[nH]1
active: [8] 1.02 µM
21.2 µM: [51]
inactive: [1] 15.9 µM | [2] 23.2 µM | [3] 26.3 µM | [4] 18 µM | [5] 4.57 µM | [6] 2.86 µM | [7] 29.2 µM | [10] 28.1 µM | [12] 19.1 µM | [52] 21.9 µM | [53] 13.9 µM | [13] 43 µM | [54] 19 µM | [14] 5.12 µM | [15] 41.7 µM | [16] 25.4 µM | [17] 20.2 µM | [18] 15.2 µM | [19] 17.7 µM | [20] 23.2 µM | [21] 11.7 µM | [55] 16.9 µM | [56] 17.9 µM | [22] 16 µM | [23] 21.3 µM | [24] 36.8 µM | [25] 26.1 µM | [26] 24.8 µM | [27] 36.8 µM | [28] 22.3 µM | [29] 25.4 µM | [30] 22.1 µM | [31] 11.7 µM | [32] 32.2 µM | [33] 20 µM | [34] 32.7 µM | [35] 22.4 µM | [36] 29 µM | [37] 41.5 µM | [57] 7.05 µM | [39] 20.9 µM | [40] 19.8 µM | [41] 17.7 µM | [42] 19.1 µM | [43] 14.1 µM | [44] 23.9 µM | [45] 17.7 µM | [46] 28.9 µM | [47] 24.3 µM | [48] 21.3 µM | [49] 20.3 µM | [50] 15.2 µM | [58] 28.2 µM

COC(=O)CNC(=O)c1cc(C)cc2c1Oc1c(cc(C)cc1C(=O)NCC(=O)OC)S2
inactive: [1] 57.8 µM | [2] > 100 µM | [3] 29.6 µM | [4] 28.4 µM | [5] 40 µM | [6] 62.2 µM | [7] 25.6 µM | [8] > 100 µM | [9] > 100 µM | [10] > 100 µM | [11] 31 µM | [12] > 100 µM | [52] > 100 µM | [53] 38.5 µM | [13] > 100 µM | [54] 96.4 µM | [14] 89.7 µM | [15] > 100 µM | [17] 45.4 µM | [19] 56 µM | [20] 99.8 µM | [21] > 100 µM | [55] 38.5 µM | [22] 81.7 µM | [23] 37.6 µM | [24] 65.6 µM | [25] > 100 µM | [26] > 100 µM | [27] > 100 µM | [28] > 100 µM | [29] 42.6 µM | [30] > 100 µM | [32] 58.7 µM | [33] > 100 µM | [34] 34.1 µM | [35] 56.9 µM | [36] 17.9 µM | [37] > 100 µM | [38] 39.4 µM | [57] 60.1 µM | [39] > 100 µM | [40] 22.3 µM | [41] 47.8 µM | [42] > 100 µM | [43] 21.3 µM | [44] 98.9 µM | [59] > 100 µM | [45] > 100 µM | [46] > 100 µM | [47] > 100 µM | [48] 49.5 µM | [49] > 100 µM | [50] 47.1 µM
53.1 µM: [51]
